Results taken from patent US12630512B2, “Agents for differentiating stem cells and treating cancer” (Minerva Biotechnologies Corporation, priority 2017, dated 2026).

Assays:
micro-RNA-145 = assay: RT-PCR measurement of miR-145 in naïve state stem cells; type: cell-based, human; conditions: treated for 72 hours (FIG. 91A-91C)
Experimental: FIGS. 91A-91C show graphs of RT-PCR measurement of naïve state stem cells treated for 72 hours with compounds of the invention at the indicated concentrations, wherein the gene that is measured is micro-RNA-145, which is a harbinger of stem cell differentiation.
We used RT-PCR to measure changes in the expression of some of these super-enhancer genes, AXIN2, which is a surrogate for activated β-catenin, miR-145, MUC1 and MUC1* ligands NME7AB and NME7-X1. […] Thus, compounds of the invention, at least in part, inhibit tumor cell migration and invasiveness by inducing expression of genes that are critical for differentiation, some of which are super-enhancer target genes, and miR-145, while decreasing expression of β-catenin, MUC1 and its growth factor NME7AB. Novel compounds of the invention are powerful agents for the treatment or prevention of cancers and metastatic cancers. […] In one aspect of the invention, a biological sample from a patient is tested for the presence of MUC1*, NME7AB or NME7-X1, and upon finding that the patient's cancer is positive for MUC1*, NME7AB or NME7-X1, a compound of the invention is administered to the patient in an amount suitable to prevent or treat the cancer. In one instance, the patient sample is subjected to a test, such as PCR, to determine the amount of nucleic acid that encodes MUC1, NME7 or NME7-X1. […] In another aspect of the invention, the patient's cancer is considered to be MUC1* positive, NME7AB positive or NME7-X1 positive if expression of those genes is equal to or greater than 0.5% of EEF1A1 expression in those cells. In yet another aspect of the invention, the patient's cancer is considered to be MUC1* positive if the patient's tissue specimen is contacted with an antibody that binds to the PSMGFR peptide or the N-10 peptide and stains the tissue with a pathologist's standard score 1-4 (“+−++++”). […]

human fibroblasts = assay: Effect on fibroblasts as surrogate for normal cells; type: cell-based; conditions: fibroblasts as surrogate for normal cells; 6 uM
Description: However, fibroblasts are more differentiated than stem cells but are able to self-replicate for defined periods of time. We tested selected compounds of the invention to determine if these compounds were just cytotoxic or if they selectively affected stem cells and, importantly, cancer cells, but not normal, healthy cells. Here, we used fibroblasts as a surrogate for normal cells. […] […] Each compound was scored for its effect on fibroblast proliferation where “+” indicates 25% inhibition of fibroblast growth, “++” 50% inhibition and “+++” 75% inhibition of growth.

T47D breast cancer cells = assay: Cancer cell migration assay (wound healing / Platypus); type: cell-based, human; conditions: cell line not given, FIGS. 65-80 use T47D, 120 hours; for IC50: Homo sapiens, read-out: IC50 of inhibition of cancer cell migration
Description: Potent cancer cell migration is characteristic of cancer cell invasion of other tissues and of metastasis. Typical migration assays involve coating a cell culture plate with fibronectin, collagen or the like, plating cancer cells and making a scar across through the cells and measuring the time it takes for the cancer cells to invade the void space. An alternative approach that gives more reliable data is the Platypus System which is a special multi-well cell culture plate with a juxtaposed set of plugs that block off a circle in the center of each well. Cancer cells are plated while the plugs are in place, then they are removed after the cells attach to the plate surface. […] In our cancer cell migration assays, the number of cells that have migrated into the empty space is quantified using Image J software. The effects of known anti-migration compounds are compared to the anti-MUC1* Fab E6 and the first few small molecule leads. The effect of two novel small molecules MN1186 and MN1194, compared to the known anti-migration molecule SU11274, is shown in FIG. 22A-22U. FIG. 22V is a graph showing the measured inhibition of cancer cell migration at time 0, 24 hours or 48 hours for a number of compounds. […] FIG. 22X is a graph showing how IC50's of the small molecules of the invention were measured and calculated.
Percent inhibition of cancer cell migration was performed in a wound healing assay. The percent area that the invading cancer cells occupied, in the presence of a drug candidate compared to the controls, was quantified by Image J cell software which enables cell counting from photographs. IC50's were calculated by performing migration experiments at several compound concentrations and then applying Hill's equation. Inhibition of cancer cell proliferation was quantified by automated cell counting in the presence or absence of a drug candidate. Here, the inhibition of cancer cell proliferation was scored 1 if proliferation was inhibited by 25%, 2 if inhibited by […] and 4 for the highest degree of inhibition of proliferation, and 0 for the lowest. The effect of the drug candidates on stem cell pluripotency or proliferation was scored by eye, based on cell morphology and cell density, with 0 being no change in morphology or cell number and 4 being the most profound effect, with the stem cells taking on the morphology of a differentiating cell, along with much fewer cells indicative of inhibition of proliferation. As an example, FIGS. 30A-30F show photographs of naïve stem cell, primed stem cell and fibroblast controls. FIGS. 31A-31F show the effect of compounds of the invention on naïve state stem cells, where the number of ‘+’ signs indicates the score from 0-4 of ability of compound to inhibit pluripotency, proliferation of naïve stem cells or ability to induce their differentiation. […] FIGS. 36-44 and 65-87 show photographs and IC50 graphs of the compounds of the invention, inhibiting cancer cell migration and invasion. Cancer cell migration is a hallmark of metastatic cancer.
For the cancer cell migration experiment cancer cells were plated at varying densities into an Oris Cell Migration Assay Collagen-1 coated 96-well plate (Platypus Technologies LLC, Madison, WI). The Collagen-1 coated 96-well plate incorporates a specific vacuum plug which attaches to the bottom of each well, creating an area in which the cells cannot grow into. Once the cells have been plated at high densities into each well, they are allotted an 18-24 hour time period to attach to the bottom of the wells. Post-24 hour plugs are removed from the plate and then small molecule analogs are added to the wells. Images are taken of each well and represent time 0 (T=0) for each well. Images are taken of the wells at the 24, 48, 72, 96 and 120 hour time points. Data analysis is conducted using the images taken at these specific time point. […]

effect on fibroblast cells (human fibroblasts) | IC50 (T47D breast cancer cells) [µM] | SMILES | expression of miR-145 in naïve state stem cells (micro-RNA-145) | inhibited cancer cell migration (T47D breast cancer cells) [%]
no effect | 0.01 | CN(C[C@H]1CC[C@H](C(=O)N2CCc3c([nH]c4ccccc34)C2C2CC2)CC1)C(=O)NC(C)(C)C (stereo partly drawn) [MN1413] | increased expression of miR-145 | 83
no effect | 0.012 | C[C@@H]1Cc2c([nH]c3ccccc23)CN1C(=O)C1CCC(CN(C)C(=O)NC(C)(C)C)CC1 (stereo partly drawn) [MN1423] | increased expression of miR-145 | 84
no effect | 0.007 | CN(CC1CCC(C(=O)N2CCC(c3ccncc3)CC2)CC1)C(=O)OC(C)(C)C (stereo not drawn) [MN1428, Tert-butyl methyl((4-(4-(pyridin-4-yl)piperidine-1-carbonyl)cyclohexyl)methyl)carbamate] | increased expression of miR-145 | 79
